System: castrated (GDX) male Wistar rats
Assay: In vivo model of efficacy and selectivity (castrated rat; LA, SV wet weight, PALP activity)
Conditions: po, two weeks; for LA weight % Efficacy versus control (GDX) (ANOVA, p < 0.05): levator ani wet weight normalized to body weight; for PALP % Efficacy versus control (GDX) (ANOVA, p < 0.05): periosteal alkaline phosphatase activity, tibia; for SV weight % Efficacy verses control (sham) (ANOVA, p < 0.05): seminal vesicle wet weight normalized to body weight
Experimental: Male Wistar rats (12 weeks old) are castrated (gonadectomized or “GDX”) according to approved procedures (Charles River Labs) and allowed to waste for eight - 10 weeks. Age-matched sham-operated mice are also prepared. (Sham-operated mice are animals that have been exposed to the same surgical procedures as castrated animals except their testes are not removed.) Animals are housed in a temperature-controlled room (24° C.) with a reversed 12 hour light/dark cycle (dark 10:00/22:00) and water and food are available ad libitum.
Test compounds are administered to the animals using conventional vehicles. For example, 1% sodium carboxymethylcellulose (CMC)+0.25% Tween 80 in sterile H2O can be used for oral administration and 6% ethyl-alcohol (EtOH)+94% cyclodexitrane (CDX) can be used for subcutaneous injections. Sham operated rats treated with vehicle alone are used as a treatment positive controls whereas castrated rats treated only with vehicle are used as treatment negative control.
Test animals are dosed over a two week timeframe, orally or subcutaneously, with, for example, 0.3, 1, 3, 10 or 30 mg/kg/day of a compound of the present invention. After the two-week treatment, as an indicator of activity, the wet weight of the Levator Ani (LA) muscle in the test group is determined and compared to the wet weight of the Levator Ani from the castrated, vehicle-only control group. The wet weights of the muscle obtained in both the test group and the vehicle-only group are normalized relative to total body weight. As an indicator of tissue selective activity, the wet weight of the seminal vesicle (SV) from test animals is similarly compared to the wet weight of the seminal vesicles from the sham, vehicle-only group. Again, the wet weights of the vesicles obtained from both the test group and the vehicle-only group are normalized relative to total body weight.
In addition to the Levator Ani wet weight, the left tibia of rats are isolated during necropsy and after uncapping of the epiphysis, the soft tissue surrounding the bone is carefully removed. This sample is then placed in a solution containing 0.2% collagenase in Tris Buffer (pH 7.5). The resulting enzymatic excision of the outer periosteal layer is subjected immediately to an assay to determine alkaline phosphatase activity, an indicator of osteoblast/bone anabolic activity. Briefly, 30 μL of sample is placed in an epitube containing 200 μL of para-nitrophenyl phosphate (PNPP) substrate buffer (Pierce Cat # 37621). Purified alkaline phosphatase (Sigma Cat. # P4252) is used to make a standard curve, and the samples are read in a plate reader at Abs405 to determine periosteal alkaline phosphatase (PALP) activity. The results obtained from both the test group and the vehicle only group may be normalized relative to total body weight.
Percent Efficacy (% Eff.) values may be determined as follows: % Eff.=((Wet weight of LA or SV or PALP activity in test animal/test animal total body weight)/(Wet weight of LA or SV or PALP activity in control animal/control animal total body weight))×100.

CN(C)S(=O)(=O)N[C@@H]1Cc2c(n(Cc3cccc(F)n3)c3ccc(C#N)cc23)C1 [Example 74, (R)-N′-[7-Cyano-4-(6-fluoro-pyridin-2-ylmethyl)-1,2,3,4-tetrahydro-cyclopenta[b]indol-2-yl]-N,N-dimethylsulfamide]
LA weight % Efficacy versus control (GDX) (ANOVA, p < 0.05) (3 mg/Kg/d): 134% | PALP % Efficacy versus control (GDX) (ANOVA, p < 0.05) (3 mg/Kg/d): 95% | SV weight % Efficacy verses control (sham) (ANOVA, p < 0.05) (3 mg/Kg/d): 6% | LA weight % Efficacy versus control (GDX) (ANOVA, p < 0.05) (10 mg/Kg/d): 195% | PALP % Efficacy versus control (GDX) (ANOVA, p < 0.05) (10 mg/Kg/d): 116% | SV weight % Efficacy verses control (sham) (ANOVA, p < 0.05) (10 mg/Kg/d): 8% | LA weight % Efficacy versus control (GDX) (ANOVA, p < 0.05) (30 mg/Kg/d): 186% | PALP % Efficacy versus control (GDX) (ANOVA, p < 0.05) (30 mg/Kg/d): 107% | SV weight % Efficacy verses control (sham) (ANOVA, p < 0.05) (30 mg/Kg/d): 14%

Reference: patent US7968587B2, “Tetrahydrocyclopenta[b]indole compounds as androgen receptor modulators” (priority 2006, dated 2011)
